# Assays:
# human TLR7 = molecular target: T1, human TLR7 (Homo sapiens, UniProt Q9NYK1); assay: HEK293-Blue-hTLR-7 cells assay; format: cell-based; settings: HEK293-Blue-hTLR7 cells, R848 stimulation, 20 hrs, SEAP reporter; read-out: HEK/hTLR7 IC50
# T1 construct: host or cells: HEK293 (HEK-Blue hTLR7)
# T1 sequence (Q9NYK1 27-1049): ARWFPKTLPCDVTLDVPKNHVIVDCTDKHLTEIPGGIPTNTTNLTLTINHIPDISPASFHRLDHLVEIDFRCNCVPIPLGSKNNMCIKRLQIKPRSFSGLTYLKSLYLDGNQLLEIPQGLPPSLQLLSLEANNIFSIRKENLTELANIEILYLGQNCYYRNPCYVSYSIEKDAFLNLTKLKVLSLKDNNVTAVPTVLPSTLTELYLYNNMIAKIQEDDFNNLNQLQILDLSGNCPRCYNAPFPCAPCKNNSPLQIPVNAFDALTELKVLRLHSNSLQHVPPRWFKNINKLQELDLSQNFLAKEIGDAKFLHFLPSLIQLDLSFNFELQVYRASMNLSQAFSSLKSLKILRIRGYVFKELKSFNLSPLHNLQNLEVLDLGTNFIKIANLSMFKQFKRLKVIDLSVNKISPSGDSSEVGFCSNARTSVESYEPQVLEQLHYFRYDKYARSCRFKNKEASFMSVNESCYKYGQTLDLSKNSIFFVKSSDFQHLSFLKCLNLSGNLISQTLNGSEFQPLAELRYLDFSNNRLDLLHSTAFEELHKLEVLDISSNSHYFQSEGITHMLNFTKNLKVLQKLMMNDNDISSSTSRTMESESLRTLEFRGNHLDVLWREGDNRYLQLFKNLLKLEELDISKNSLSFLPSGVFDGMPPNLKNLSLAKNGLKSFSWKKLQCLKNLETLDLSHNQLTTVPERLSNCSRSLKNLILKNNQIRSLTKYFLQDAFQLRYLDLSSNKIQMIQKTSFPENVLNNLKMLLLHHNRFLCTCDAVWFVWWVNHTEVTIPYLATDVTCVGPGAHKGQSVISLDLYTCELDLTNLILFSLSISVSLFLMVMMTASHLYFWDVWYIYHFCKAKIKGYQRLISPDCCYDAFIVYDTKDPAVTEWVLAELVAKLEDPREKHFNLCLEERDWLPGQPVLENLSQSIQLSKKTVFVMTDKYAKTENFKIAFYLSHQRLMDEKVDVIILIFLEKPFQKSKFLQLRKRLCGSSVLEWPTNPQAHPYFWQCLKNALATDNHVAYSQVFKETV
# Excerpt: HEK293-Blue-hTLR-7 cells assay:
# A stable HEK293-Blue-hTLR-7 cell line was purchased from InvivoGen (Cat. #: hkb-htlr7, San Diego, Calif., USA). These cells were originally designed for studying the stimulation of human TLR7 by monitoring the activation of NF-κB. A SEAP (secreted embryonic alkaline phosphatase) reporter gene was placed under the control of the IFN-β minimal promoter fused to five NF-κB and AP-1-binding sites. The SEAP was induced by activating NF-κB and AP-1 via stimulating HEK-Blue hTLR7 cells with TLR7 ligands. Therefore the reporter expression was declined by TLR7 antagonist under the stimulation of a ligand, such as R848 (Resiquimod), for incubation of 20 hrs. The cell culture supernatant SEAP reporter activity was determined using QUANTI-Blue™ kit (Cat. #: rep-qb1, Invivogen, San Diego, Ca, USA) at a wavelength of 640 nm, a detection medium that turns purple or blue in the presence of alkaline phosphatase.
# HEK293-Blue-hTLR7 cells were incubated at a density of 250,000-450,000 cells/mL in a volume of 170 μL in a 96-well plate in Dulbecco's Modified Eagle's medium (DMEM) containing 4.5 g/L glucose, 50 U/mL penicillin, […], […], 2 mM L-glutamine, 10% (v/v) heat-inactivated fetal bovine serum with addition of 20 μL test compound in a serial dilution in the presence of final DMSO at 1% and 10 μL of 20 uM R848 in above DMEM, perform incubation under 37° C. in a CO2 incubator for 20 hrs. Then 20 μL of the supernatant from each well was incubated with 180 μL Quanti-blue substrate solution at 37° C. for 2 hrs and the absorbance was read at 620˜655 nm using a spectrophotometer. The signaling pathway that TLR7 activation leads to downstream NF-κB activation has been widely accepted, and therefore similar reporter assay was modified for evaluating TLR7 antagonist.
# hERG channel = molecular target: T2, hERG channel (Homo sapiens, UniProt Q12809); assay: hERG channel inhibition assay (patch-clamp, CHOhERG cells); format: cell-based; settings: for IC50 / IC20: CHOhERG cells, whole-cell patch-clamp; for IC20: human, CHO cells stably expressing hERG (CHOhERG cells); for hERG IC20/TLR7 IC50 / hERG IC20/TLR8 IC50 / hERG IC20/TLR9 IC50: safety ratio, >30 suggests sufficient window
# T2 construct: expressed in transfected cells; host or cells: CHO (Chinese hamster ovary), CHOhERG
# T2 sequence (Q12809 whole entry): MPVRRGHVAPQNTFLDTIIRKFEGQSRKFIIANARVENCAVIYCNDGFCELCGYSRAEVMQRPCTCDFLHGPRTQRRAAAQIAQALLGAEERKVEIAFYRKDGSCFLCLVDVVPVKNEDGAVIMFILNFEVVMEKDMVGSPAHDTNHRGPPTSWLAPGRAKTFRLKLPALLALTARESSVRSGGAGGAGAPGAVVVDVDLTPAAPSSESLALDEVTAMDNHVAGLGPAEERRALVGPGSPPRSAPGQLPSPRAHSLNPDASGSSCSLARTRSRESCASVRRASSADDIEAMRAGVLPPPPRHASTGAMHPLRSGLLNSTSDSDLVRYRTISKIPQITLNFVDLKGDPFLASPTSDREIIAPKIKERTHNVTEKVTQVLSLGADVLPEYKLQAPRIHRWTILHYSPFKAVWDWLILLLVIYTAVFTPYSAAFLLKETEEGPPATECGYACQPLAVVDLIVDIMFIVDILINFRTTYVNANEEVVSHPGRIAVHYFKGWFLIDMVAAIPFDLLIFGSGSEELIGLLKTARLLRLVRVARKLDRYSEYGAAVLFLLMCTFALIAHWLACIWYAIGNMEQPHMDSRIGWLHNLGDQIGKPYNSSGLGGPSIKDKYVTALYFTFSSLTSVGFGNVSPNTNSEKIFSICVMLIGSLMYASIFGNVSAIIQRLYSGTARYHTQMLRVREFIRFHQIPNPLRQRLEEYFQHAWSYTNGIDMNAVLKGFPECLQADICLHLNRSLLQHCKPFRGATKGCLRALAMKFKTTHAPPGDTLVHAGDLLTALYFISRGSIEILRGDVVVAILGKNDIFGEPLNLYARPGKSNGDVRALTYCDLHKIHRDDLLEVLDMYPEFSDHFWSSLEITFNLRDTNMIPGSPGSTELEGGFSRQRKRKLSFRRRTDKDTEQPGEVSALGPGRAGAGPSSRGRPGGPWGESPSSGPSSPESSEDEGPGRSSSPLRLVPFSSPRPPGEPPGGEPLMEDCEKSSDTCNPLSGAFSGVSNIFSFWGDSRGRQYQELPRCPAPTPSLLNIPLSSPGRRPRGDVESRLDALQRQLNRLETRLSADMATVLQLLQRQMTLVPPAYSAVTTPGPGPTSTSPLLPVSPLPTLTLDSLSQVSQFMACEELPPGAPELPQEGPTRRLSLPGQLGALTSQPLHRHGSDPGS
# Description: hERG Channel Inhibition Assay:
# The hERG K^+ channels were cloned in humans and stably expressed in a CHO (Chinese hamster ovary) cell line. CHOhERG cells were used for patch-clamp (voltage-clamp, whole-cell) experiments. Cells were stimulated by a voltage pattern to activate hERG channels and conduct hERG currents (rapid delayed outward rectifier potassium current of the hERG channel). After the cells were stabilized for a few minutes, the amplitude and kinetics of IKhERG were recorded at a stimulation frequency of 0.1 Hz (6 bpm). Thereafter, the test compound was added to the preparation at increasing concentrations. For each concentration, an attempt was made to reach a steady-state effect, usually, this was achieved within 3-10 min at which time the next highest concentration was applied. The amplitude and kinetics of IKhERG are recorded in each concentration of the drug which were compared to the control values (taken as 100%). (references: Redfern W S, Carlsson L, Davis A S, Lynch W G, MacKenzie I, Palethorpe S, Siegl P K, Strang I, Sullivan A T, Wallis R, Camm A J, Hammond T G. 2003; Relationships between preclinical cardiac electrophysiology, clinical QT interval prolongation and torsade de pointes for a broad range of drugs: evidence for a provisional safety margin in drug development. Cardiovasc. Res. 58:32-45, Sanguinetti MC, Tristani-Firouzi M. 2006; hERG potassium channels and cardiac arrhythmia. Nature 440:463-469, Webster R, Leishman D, Walker D. 2002; Towards a drug concentration effect relationship for QT prolongation and torsades de pointes. Curr. Opin. Drug Discov. Devel. 5:116-26).
Structure (SMILES),IC50 (human TLR7),IC50 (hERG channel),IC20 (hERG channel),hERG IC20/TLR7 IC50 (hERG channel),hERG IC20/TLR8 IC50 (hERG channel),hERG IC20/TLR9 IC50 (hERG channel)
"C[C@@H]1CN(c2ccc(C#N)c3ncccc23)C[C@H](CN2CC(n3cc4c(n3)CNCC4)C2)O1 [Example 4, 5-[(2R,6S)-2-methyl-6-[[3-(4,5,6,7-tetrahydropyrazolo[3,4-c]pyridin-2-yl)azetidin-1-yl]methyl]morpholin-4-yl]quinoline-8-carbonitrile]",0.009 µM,> 20 µM,> 10 µM,>1136.4,>1162.8,>314.5
"C[C@@H]1CN(c2ccc(C#N)c3ncccc23)C[C@H](CN2CC(n3cc4c(n3)CNC4)C2)O1 [Example 11, 5-[(2S,6R)-2-[[3-(5,6-dihydro-4H-pyrrolo[3,4-c]pyrazol-2-yl)azetidin-1-yl]methyl]-6-methyl-morpholin-4-yl]quinoline-8-carbonitrile]",0.017 µM,> 20 µM,> 10 µM,>602.4,>531.9,>204.5
"C[C@@H]1CN(c2ccc(C#N)c3ncccc23)C[C@H](CN2CCC(n3ncc4c3CCNC4)CC2)O1 [Example 35, 5-[(2R,6S)-2-methyl-6-[[4-(4,5,6,7-tetrahydropyrazolo[4,3-c]pyridin-1-yl)-1-piperidyl]methyl]morpholin-4-yl]quinoline-8-carbonitrile]",0.005 µM,> 20 µM,> 10 µM,>1924.5,>397.8,>121.4

# Reference: patent US20210300924A1, “5-[6-[[3-(4,5,6,7-TETRAHYDROPYRAZOLO[4,3-C]PYRIDIN-1-YL)AZETIDIN-1-YL]METHYL]MORPHOLIN-4-YL]QUINOLINE-8-CARBONITRILE DERIVATIVES AND SIMILAR COMPOUNDS AS TLR7-9 ANTAGONISTS FOR TREATING SYSTEMIC LUPUS ERYTHEMATOSUS” (Hoffmann-La Roche Inc., priority 2018, published 2021)
